Test results as given in patent US8603967B2, “Carrier peptide fragment and use thereof” (Toagosei Co., Ltd., priority 2009, dated 2013).

Tested on: Human neonate fibroblasts (ATCC cell line CCD-1079sk)
Assay: Evaluation of cell membrane permeability function (fluorescence antibody technique, confocal microscopy)
Type: cell-based
Settings: 3.5 μg/mL in liquid culture medium, cultured 2 hours, FIG. 2
Method: Human neonate fibroblasts (ATCC cell line CCD-1079sk) were used as the eukaryotic cells, and the cell membrane permeability capability of the 2 samples (constructs for transferring a foreign substance) obtained in Example 1 above was investigated.
More specifically, approximately 2×10^4 cells were cultured on a collagen-coated S-well slide overnight at 37° C. in 5% CO2 using a liquid culture medium (Eagle's MEM medium: comprising 0.1 mM NeAA, 1 mM sodium pyruvate, Earle's BSS (product of GIBCO) with 10% FBS (product of GIBCO).
The purified polypeptides obtained above were added to the cell culture (1.5 μg/mL of the polypeptide of Sample No. 1 and 3.5 μg/mL of the polypeptide of Sample No. 2), and culturing was continued for another 2 hours.
Then the supernatant was removed, the abovementioned D-PBS was added, and the cells were rinsed 3 times therewith on ice. Next, ice-cold methanol was added and the samples were let stand for 10 min at −20° C. to fix the cells. Then the methanol was removed, PBS solution containing 5% normal goat serum (product of MBL) was added, and blocking was carried out at room temperature for 1 hour. […]

Substance: Sample No. 2: Fusion polypeptide (SEQ ID NO: 7): Met, NoLS carrier KKRTLRKNDRKKR fused to N-terminal end of GFP, C-terminal polyhistidine tag
- location of the polypeptide transferred into the cells (nuclear translocation) (anti-GFP antibody staining merged with DAPI): transferred (translocated) to the nucleus and localized therein
- transfer of the polypeptide into the cells (anti-GFP antibody staining): transfer of the polypeptide into the cells can be seen
